Results on two compounds are retold here after patent US20240108011A1, “HERBICIDAL COMBINATIONS AND COMPOSITIONS AND METHODS FOR TREATING WEEDS USING THE SAME” (UPL Corporation Limited, priority 2021, published 2024).

What all share (type): in vivo
Assay [1] has as its system Euphorbia heterophylla. The assay is described as follows: Greenhouse trial, weed control efficacy on Euphorbia heterophylla. As to the method: In this example, synergy of the combination of L-glufosinate ammonium (150 gai/ha) and 2,4-D choline (137 gai/ha) Euphorbia heterophylla was determined using the calculated percentage efficacy after 7, 14, 21 days of application (DAA). The results are recorded in the Table 4 below:
In this example, synergy of using the combination of L-glufosinate ammonium (150 gai/ha) and 2,4-D choline (228 gai/ha) on Euphorbia heterophylla was determined using the calculated percentage efficacy after 14, 21 days of application (DAA).

For assay [2], the system named is Borreria verticilata. Nature of the assay: Greenhouse trial, weed control efficacy on Borreria verticilata. As to conditions: 7 DAA. How it is done:
In this example, synergy from the combination of L-glufosinate ammonium (150 gai/ha) and 2,4-D choline (137 gai/ha) on Borrelia verticilata was determined using the calculated percentage efficacy after 7 days of application (DAA). The results are recorded in Table 1 below:
In this example, synergy of the combination of L-glufosinate ammonium (150 gai/ha) and 2,4-D choline (228 gai/ha) on Borrelia verticilata was determined using the calculated percentage efficacy after 7 days of application (DAA).

For assay [3], the system named is Eleusine indica. The assay is described as follows: Greenhouse trial, weed control efficacy on Eleusine indica. Particulars: Table 3. How it is done:
In this example, synergy of the combination of L-glufosinate ammonium (150 gai/ha) and 2,4-D choline (228 gai/ha) on Eleusine indica was determined using the calculated percentage efficacy after 7, 14, 21 and 28 days of application (DAA).

`C[N+](C)(C)CCO.O=C([O-])COc1ccc(Cl)cc1Cl` [2,4-D choline]: the “Observed efficacy (%) of 2,4-D choline (137 gai/ha)” value in assay [1] (Table 4, 7 DAA) is recorded as 35%; in assay [1] (Table 4, 14 DAA) it was 30%; in assay [1] (Table 4, 21 DAA), 25%; in assay [2] (Table 1, 137 gai/ha) it was 30%. In addition, the “Observed efficacy (%) of 2,4-D choline (228 gai/ha)” value in assay [1] (Table 5, 14 DAA) is listed as 30%; in assay [1] (Table 5, 21 DAA), 30%; in assay [2] (Table 2, 228 gai/ha), 30%; in assay [3] (7 DAA) it was 10%; in assay [3] (14 DAA), 10%; in assay [3] (21 DAA) it was 10%. Moreover, the “Observed efficacy (%) of 2,4-D choline (228 gai/ha)” value in assay [3] (28 DAA) is 5%.
Regarding `CP(=O)(O)CC[C@H](N)C(=O)O.N` [L-glufosinate ammonium, ammonium (2S)-2-amino-4-(methylphosphinato)butyric acid], the “Observed efficacy (%) of L-glufosinate ammonium (150 gai/ha)” value in assay [1] (Table 4, 7 DAA) came out at 95%; in assay [1] (Table 4, 14 DAA) it was 98%; in assay [1] (Table 4, 21 DAA), 98%; in assay [1] (Table 5, 14 DAA) it was 98%; in assay [1] (Table 5, 21 DAA), 98%; in assay [2] (Table 1), 65%. The “Observed efficacy (%) of L-glufosinate ammonium (150 gai/ha)” value worked out at 65% in assay [2] (Table 2); 70% in assay [3] (7 DAA); 65% in assay [3] (14 DAA); 60% in assay [3] (21 DAA); 50% in assay [3] (28 DAA).
